From patent publication US5574013A (Warner-Lambert Company, priority 1993, dated 1996) come the findings set out here.

The target in the assay is T1, CCK B (Mus musculus, UniProt P56481).
T1 construct: from tissue; host or cells: cerebral cortex membranes of male CFLP mice
T1 sequence (P56481 1-453): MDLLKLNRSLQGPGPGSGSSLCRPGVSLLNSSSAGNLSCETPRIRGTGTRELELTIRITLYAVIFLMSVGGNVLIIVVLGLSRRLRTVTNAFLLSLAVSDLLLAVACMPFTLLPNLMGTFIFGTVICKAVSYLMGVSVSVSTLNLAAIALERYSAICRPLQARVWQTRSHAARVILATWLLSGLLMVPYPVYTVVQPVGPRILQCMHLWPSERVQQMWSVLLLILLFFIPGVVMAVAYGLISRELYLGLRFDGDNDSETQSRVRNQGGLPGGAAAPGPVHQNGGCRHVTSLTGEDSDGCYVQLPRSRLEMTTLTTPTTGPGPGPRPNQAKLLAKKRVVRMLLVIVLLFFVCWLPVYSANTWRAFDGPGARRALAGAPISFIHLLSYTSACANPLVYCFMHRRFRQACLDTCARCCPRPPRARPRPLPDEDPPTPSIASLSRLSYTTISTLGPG
Briefly: CCK receptor binding screening test, displacement of tritiated-pentagastrin from mouse cerebral cortical membranes. As to conditions: Ki by Cheng-Prusoff; 2 nM tritiated-pentagastrin; mouse cerebral cortex membranes; read-out: Binding Affinity CCK B. As for the experimental part: The biological activity of compounds of the present invention was evaluated employing an initial screening test which rapidly and accurately measured the binding of the tested compound to known CCK receptor sites. […] (See Hays et al, Neuropeptides 1:53-62, 1980; and Satuer et al, Science 208:1155-1156, 1980.
In this screening test, the cerebral cortices taken from male CFLP mice weighing between 30-40 g were dissected on ice, weighed, and homogenized in 10 volumes of 50 mM Tris-HCl buffer (pH 7.4 at 0°-4° C.). The resulting suspension was centrifuged, the supernate was discarded, and the pellet was washed by resuspension in Tris-HCl buffer followed by recentrifugation. The final pellet was resuspended in 20 volumes of […] Hepes buffer (pH 7.2 at 23° C.) containing 130 mM NaCl, […] KCl, […] MgCl2, […] EDTA, 5 mg/mL bovine albumin, and bacitracin (0.25 mg/mL).
In saturation studies, cerebral cortical membranes were incubated at 23° C. for 120 minutes in a final volume of 500 μL of Hepes incubation buffer (pH 7.2) together with 0.2-20 nM tritiated-pentagastrin (Amersham International, England).
In the displacement experiments, membranes were incubated with a single concentration (2 nM) of ligand, together with increasing concentrations ([…]) of competitive test compound. In each case, the nonspecific binding was defined as that persisting in the presence of the unlabeled octapeptide CCK26-33 (10^-6 M).
Following incubation, radioactivity bound to membranes was separated from that free in solution by rapid filtration through Whatman GF/B filters and washed three times with 4 mL of ice cold Tris-HCl buffer. Filters from samples incubated with tritiated-pentagastrin were placed in polyethylene vials with 4 mL of scintillation cocktail, and the radioactivity was estimated by liquid scintillation spectrometry (efficiency 47-52%).
The specific binding to CCK receptor sites was defined as the total bound tritiated-pentagastrin minus the amount of tritiated-pentagastrin bound in the presence of 10^-6 octapeptide, CCK26-33.
Saturation curves for specific tritiated-pentagastrin binding to mouse cortical membranes were analyzed by the methods of Scatchard (Ann. New York Acad. Sci. 51:660-672, 1949, and Hill (J. Physiol. 40:IV-VIII, 1910, to provide estimates for the maximum number of binding sites (Bmax) and the equilibrium dissociation constant (Ka).
In displacement experiments, inhibition curves were analyzed by either logit-log plots or the iterative curve fitting computer program ALLFIT (DeLean, Munson and Redbard, 1978) to provide estimates of the IC50 and nH (apparent Hill coefficient) values). (IC50 values were defined as the concentration of test compound required to produce 50% inhibition of specific binding.)
The inhibition constant (Ki) of the test compound was then calculated according to the Cheng-Prusoff equation: [formula] where [L] is the concentration of radiolabel and Ka is the equilibrium dissociation constant.
The Ki values for several representative compounds of the present invention are present in Table I.

Take `C[C@](Cc1c[nH]c2ccccc12)(NC(=O)OC1C2CC3CC(C2)CC1C3)C(=O)NCC(=O)OCc1ccccc1` (stereo partly drawn) [Example 3, Gycine, N-[2-methyl-N-[(tricyclo[3.3.1.1^3,7]dec-2-yloxy)carbonyl]-D-tryptophyl]-, phenylmethyl ester]: the Ki was 50.4 nM.
Then `CCC(C)C(CO)NC(=O)C(C)(Cc1c[nH]c2ccccc12)NC(=O)OC1C2CC3CC(C2)CC1C3` (stereo not drawn) [Example 9, Carbamic acid, [2-[[1-(hydroxymethyl)-2-methylbutyl]amino]-1-(1H-indol-3-ylmethyl)-1-methyl-2-oxoethyl]-, tricyclo[3.3.1.1^3,7]dec-2-yl ester, [1S-[1R*(S*), 2R*]]-], with 225 nM; and `C[C@](Cc1c[nH]c2ccccc12)(NC(=O)OC1C2CC3CC(C2)CC1C3)C(=O)NCCC(=O)OCc1ccccc1` (stereo partly drawn) [Example 7, Propanoic acid, 3-[(3-(1H-indol-3-yl)-2-methyl-1-oxo-2-[[(tricyclo[3.3.1.1^3,7]dec-2-yloxy)carbonyl]amino]propyl]amino]--, phenylmethyl ester (R)-], with 299 nM; and `C[C@](Cc1c[nH]c2ccccc12)(NC(=O)OC1C2CC3CC(C2)CC1C3)C(=O)NCCC(=O)O` (stereo partly drawn) [Example 6, β-Alanine, N-[α-methyl-N-[(tricyclo[3.3.1.1^3,7]dec-2-yloxy)carbonyl]-D-tryptophyl]-], with 4380 nM.
As for `C[C@](Cc1c[nH]c2ccccc12)(NC(=O)OC1C2CC3CC(C2)CC1C3)C(=O)NCC(=O)O` (stereo partly drawn) [Example 4], the Ki was found to be 1510 nM.
For `CSCC[C@H](NC(=O)[C@@](C)(Cc1c[nH]c2ccccc12)NC(=O)OC1C2CC3CC(C2)CC1C3)C(=O)O` (stereo partly drawn) [Example 11, N-[α-methyl-N-[(tricyclo[3.3.1.1^3,7]dec-2-yloxy)carbonyl]-D-tryptophyl]-L-methionine], the Ki came out at 24 nM.
Regarding `CC(C)CC(CO)NC(=O)C(C)(Cc1c[nH]c2ccccc12)NC(=O)OC1C2CC3CC(C2)CC1C3` (stereo not drawn) [Example 8, Carbamic acid, [2-[[1-(hydroxymethyl)-3-methylbutyl]amino]-1-(1H-indol-3-ylmethyl)-1-methyl-2-oxoethyl]-, tricyclo[3.3.1.1^3,7]dec-2-yl ester, [R-(R*,S*)]-], the Ki came to 292 nM.
As for `COC(=O)CCNC(=O)[C@H](CCSC)NC(=O)[C@@](C)(Cc1c[nH]c2ccccc12)NC(=O)OC1C2CC3CC(C2)CC1C3` (stereo partly drawn) [Example 12], the figure is 30 nM; as for `COC(=O)CCCNC(=O)[C@@](C)(Cc1c[nH]c2ccccc12)NC(=O)OC1C2CC3CC(C2)CC1C3` (stereo partly drawn) [Example 1, Butanoic acid, 4-[[3-(1H-indol-3-yl)-2-methyl-1-oxo-2-[[(tricyclo[3.3.1.1^3,7]dec-2-yloxy)carbonyl]amino]propyl]amino]-, methyl ester (R)-], 82.1 nM.
